Measurements taken from a melting point compilation (Tetko et al.; mined from patent text by program, amines drawn as free bases though some values may be those of a salt).

Structure (SMILES)	melting point [°C]
CC(=O)c1c(C)[nH]c(-c2ccccc2C)c1NCc1ccc(Cl)cc1	167 to 170
CCOC(=O)c1cn(C2CC2)c2c(C)c(F)c(F)c(N)c2c1=O	182 to 186
Cc1[nH]c(-c2ccncc2)c(C)c1C(=O)C(F)(F)F	169 to 170
Nc1nc(C(=Cc2c(Cl)ccc(Cl)c2Cl)C(=O)O)cs1	> 210
OC(c1ccc(Cl)cc1)(c1ccc(Cl)cc1)c1nccn1Cc1ccc(Cl)cc1	171 to 173
Cc1nc2cc(C)c(CN(C)c3ccc(C(=O)NC(CO)c4cccc([N+](=O)[O-])c4)cc3)cc2c(=O)[nH]1 (stereo not given)	231 to 240
CCNC(=O)c1c(Br)cccc1[Si](C)(C)C	121 to 122
Cc1csc(-c2cc3cccc(NS(=O)(=O)c4cccs4)c3[nH]2)n1	181 to 183
COC(=O)c1nn(Cc2cccc(NC(=O)OC(C)(C)C)c2)c2c1CCc1cc(OCc3cncnc3)ccc1-2	221 to 222
COc1cccc(CCNC(=O)c2nc(N)sc2-c2ccncc2)c1OC	167 to 168
CCOc1c2c(c([N+](=O)[O-])c(OCC)c1OCC)C(=O)OC2	82.5 to 84.5
Nc1nc(Nc2ccc(SC3(Cl)C=CC(C(F)(F)F)=CN3)cc2)sc1C(=O)c1c(Cl)cc(C(F)(F)F)cc1Cl (stereo not given)	130 to 132
CN(c1cccc2cc(C3=NCCS3)[nH]c12)S(=O)(=O)c1cccs1	192 to 193
C=C1CC2C3CCC4=CC(=O)C=CC4(C)C3=CCC2(C)C1=O (stereo not given)	157 to 160
COC(=O)C(C)(C)CCCOc1cc(C)c(OCc2ccccc2)cc1C	75.5 to 76.5
CCN(CC)C(=O)COc1nc(C(F)(F)F)ns1	60
Cn1ncc(C(=O)NC2CC2)c1Cl	105 to 107
CC1(C)OC(=O)COC1=O	82 to 83
CC(=O)n1ncc2c(OCC3CO3)cc(C)cc21 (stereo not given)	105 to 107
CCOCn1cc(C(C)C)c(=O)[nH]c1=O	78.4
c1ccc(COc2ccc(CCOc3ccc(CCNc4ncnc5nccnc45)cc3)cc2)cc1	120 to 122
CCCc1c(OCCCCCOc2coc(CO)cc2=O)ccc(C(C)=O)c1O	94 to 95
CCCOc1ccccc1-c1nc2c(CCCc3ccccc3)cccc2c(=O)[nH]1	89
Cc1cc2c(cc1C)-n1c(n[nH]c1=O)C=C(c1ccc(-n3c(C)nc4cnccc43)cc1)N2	> 325
COC(=O)c1cc(OP(=O)(OC)OC)c(C(=O)OC)s1	60

Structure (SMILES)	melting point [°C]
C=COCCOc1ccc(C=CC(=O)C=Cc2ccc(OCCOC=C)cc2)cc1	124 to 125
Cn1cc(S(C)(=O)=O)c(=O)c2ccc(F)cc21	222 to 224
CCCNC(=O)Nc1ccccc1	106 to 107
O=[N+]([O-])c1ccc(Oc2ccc(Oc3ccc(Oc4ccc(Oc5ccc([N+](=O)[O-])cc5)cc4)cc3)cc2)cc1	142 to 143
Cc1cc(F)ccc1-c1nc(NCC(F)(F)F)nc2c1ccc(=O)n2-c1ccccc1F	187 to 188
Nc1nc(-c2ccccc2)c(-c2ccc(=O)[nH]n2)s1	> 250
c1cc(-c2ccncc2)c2sccc2c1	71 to 72
O=[N+]([O-])c1cc([N+](=O)[O-])c(Nc2ccc3ccccc3c2[N+](=O)[O-])c(C(F)(F)F)c1	213 to 215
CCCC1NS(=O)(=O)N(COC(=O)c2c(Cl)cccc2Cl)C1=O (stereo not given)	95 to 97
COc1nc(OC)nc(N(C)C(=O)NS(=O)(=O)c2ccccc2S(C)(=O)=O)n1	160 to 162
CC(C)c1nsc(N=C(C#N)N(C)C)c1C#N	78 to 79
CCOC(=O)C1=Cc2cc(I)ccc2NC1C(F)(F)F (stereo not given)	137 to 138
CN(C)CCCN=C1CC(c2ccc(C(F)(F)F)cc2)Cc2[nH]c3ccc(Cl)cc3c(=O)c21 (stereo not given)	211 to 213
Nc1ncc(Br)nc1OCC1CCCC1	78 to 79
CCOC(=O)c1cc(N)ccc1O	40 to 43
O=C1N(Cc2ccc(Cl)s2)c2cccc(Cl)c2C12COc1cc3c(cc12)OCO3 (stereo not given)	167 to 168
OCCOC(c1ccccc1)c1ccccc1	95 to 97
COc1cc(O)cc(Cc2cnc(N)nc2N)c1	246 to 248
CCCCCCCCCCCCCCc1ccc(N(CC(=O)OC)CC(=O)OC)cc1	160 to 165
CC(C)(c1cc(F)ccc1F)S(=O)(=O)c1ccc(Cl)cc1	147 to 148
Cc1ccc(S(=O)(=O)NC(=O)C(Cl)Cc2cc(-n3nc(C)n(C(F)F)c3=O)c(F)cc2Cl)cc1 (stereo not given)	267 to 269
CCOC(=S)N[C@@H](C)C(=O)O	74 to 78
Nc1ccc2c(c1)S(=O)(=O)c1ccccc1-2	261 to 264
CC(C)(c1ccccc1)n1nnc(-c2ccccc2-c2ccc(CBr)cc2)n1	108 to 109
CCCCOc1nc(N)c2[nH]c(=O)n(CCCNCc3cccc(C(=O)OC)c3)c2n1	214 to 218

Further lines, results first:

melting point [°C]	Structure (SMILES)
156	CCCOC(=O)C1=C(C)NC(C)=C(C(=O)OCC)C1c1ccccc1C#N (stereo not given)
174 to 175	COc1cc2oc(=O)c(CCN3CCN(c4ccccc4OC)CC3)c(C)c2cc1OC
165	CC(C)COc1c(C2CCN(CCCCNC(=O)c3ccc(-c4ccc(C(F)(F)F)cc4)cc3)CC2)ccc2c1CCCC2
70 to 72	O=C(OCCOc1ccccc1)c1sc(Cl)nc1C(F)(F)F
74 to 76	N#CCNSc1ccc(Cl)cc1
136 to 138	CC(C)OC(=O)c1cc(-n2c(=O)c3c(n(C)c2=O)CCCC3)ccc1Cl
188	COc1ccc(Br)c(C(=O)N2CCN(S(=O)(=O)c3ccc(Cl)cc3)CC2)c1
276 to 278	O=C(C=Cc1ccccc1)NN1CC(=O)NC1=O
121 to 123	COC(=O)CC1CCc2cc(O)ccc2C1=O (stereo not given)
111 to 112	CO[C@@H](Cc1ccc(C#CCOc2ccc(-c3ccccc3)cc2)cc1)C(=O)O
110 to 112	COC(=O)C(CC(=S)c1ccc(C)cc1)C(C)=O (stereo not given)
203	O=C(O)Cc1c(C(=O)O)c2cc(Oc3ccc(C(F)(F)F)cn3)ccc2n1-c1ccc(OC(F)(F)F)cc1
158 to 160	CN1CCc2c(c3ccccc3n2CCc2nc(-c3ccncc3)cs2)C1
164 to 166	COC(=O)N(C)c1cccc(-c2ccc3nnc(C)n3n2)c1
116 to 118	CCc1nc(C)cn1C(=O)c1c(Cl)cccc1[N+](=O)[O-]
68 to 70	CCN(CC)c1nc(Cl)nc2ccccc12
66 to 68	COC(=O)C1CCN(CCc2ccc(OC)cc2)CC1
108	Cc1cc(-n2ccnc2)c2cccc(OCc3c(Cl)ccc(S(=O)(=O)N4CCC[C@H]4C(=O)N4CCN(c5ccccn5)CC4)c3Cl)c2n1
167 to 170	N#Cc1ccc(C2=NOC3(CCN(C(=O)CCC(=O)O)CC3)C2)cc1
60 to 62	COc1ccc(C#Cc2ccccc2)c(CC(C)=O)c1
177 to 179	CC(=O)NC[C@H]1CN(c2ccc3c(c2)CS(=O)(=O)CC3)C(=O)O1
197 to 198	O=C(c1ccc(-c2ccc3c(c2)CCN(C2CCN(Cc4ccccc4)CC2)C3=O)cc1)N1CCCC1
101	C#CCNc1nnc(-c2ccccc2)cc1C
210 to 212	CCCNC(=O)N(C)Cc1cccc2c1C(=O)N(C1CCC(=O)NC1=O)C2=O (stereo not given)
108 to 109	COc1cccc(CC(=O)O)c1OCCCc1cc(OC(C)C)nn1Cc1ccc(Cl)cc1C

melting point [°C]	Structure (SMILES)
> 250	CCn1c(C)nc2cc(C(=O)O)ccc21
115 to 117	O=C1CC(c2ccc(Br)cc2)Oc2ccc(Br)cc21 (stereo not given)
136 to 138	CON(C(=O)C1=C(O)C(=O)N(C)C1)C(C)c1ccc(F)cc1 (stereo not given)
180 to 183	COc1ccc(C(=O)NCCc2ccc(-c3ccc(OC(C)(C)C(=O)O)cc3)cc2)cc1
256 to 257	O=c1oc2ccccc2c2oc(=S)c(-c3ccccc3)cc12
211 to 213	Fc1ccc(/C=C/C2=CCN(Cc3c[nH]c4ncccc34)CC2)cc1
145 to 146	CCCCCCN1C(=O)C(=CC(=O)O)SC1=Nc1ccccc1
206 to 208	CC(C)C[C@H](NC(=O)Nc1n[nH]c(=S)s1)C(=O)NCc1ccccc1
190 to 191	O=C(O)c1cccc(-c2cccc3c2CN(Cc2cccc(C(F)(F)F)c2)C3=O)c1
205 to 208	CCCCc1nc(NC(C)=O)[nH]c(=O)c1Cc1ccc(-c2ccccc2-c2nnn[nH]2)cc1
101 to 102	C=CCc1cc2ccc(=O)oc2c(OC)c1OC(C)=O
150	CCOC(=O)CCP(Br)(c1ccccc1)(c1ccccc1)c1ccccc1
165 to 166	Cc1cn2c(n1)Cc1cc3c(cc1C(c1ccc(N)cc1)=N2)OCO3
148 to 150	CN1CC(CO)C(c2ccccc2)(c2ccccc2)C1=O (stereo not given)
210 to 214	O=C(O)c1ccc(C=CC=CC(=O)c2ccccc2)cc1
230 to 231	Cc1ccc(-c2ccc3c(c2)C=C(C(=O)O)CC3)cc1
200 to 202	CCCCc1ncc(/C=C(/C(=O)O)C(Cc2ccccc2)c2cccs2)n1Cc1ccccc1Cl (stereo not given)
156 to 158	O=C(O)CCCCNC(=O)Cc1ccc2c(c1)CC(NS(=O)(=O)c1ccc(Cl)cc1)C2 (stereo not given)
208 to 209	O=C(O)c1cc(C(c2cc(F)ccc2F)S(=O)(=O)c2ccc(Cl)cc2)c(F)cn1 (stereo not given)
147 to 152	CN(C)c1ccc(C(=O)N(CCN2CCC(C(=O)c3ccc(F)cc3)CC2)c2cccnc2)cc1
70 to 71	CC(C)(C)OC(=O)[C@@H]1CCCN1C(=O)CCC(=O)c1ccc(Br)cc1
162 to 164	COc1cc(OCCN2CCc3ccccc3C2)ccc1C=NNC(=O)c1ccc(O)c(N)c1
188 to 192	CC(C)(C)OC(=O)N1CCC(c2cc(F)c3oc(-c4ccc(S(C)(=O)=O)cc4F)nc3c2)CC1
70 to 72	CCOC(=O)c1ccc(COc2cccc3occc23)cc1
203	O=C(NC(=O)c1cc(F)c(F)cc1Cl)Nc1cccnc1N1CCC(C(=O)NCCO)CC1
